The values below come from US20240262801A1, “COMPOUNDS HAVING 5-(2-FLUORO-6-HYDROXYPHENYL)-1,2,5-THIADIAZOLIDIN-3-ONE 1,1-DIOXIDE AS INHIBITORS OF PROTEIN KINASE PHOSPHATASE ENZYMES” (Ness Therapeutics, Inc., priority 2021, published 2024).

Experiment [1] concerns the target T1, GST-tagged PTPN2 protein (Homo sapiens, UniProt P17706).
T1 construct: purchased ActiveMotif 31592
Briefly: Primary assay of PTPN2 enzymatic activity inhibition (DiFMUP fluorescence). The experiment is classed as biochemical. The conditions noted are these: DiFMUP substrate 2 μM, 60 min at RT. Put shortly: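 Enzyme at 0.004 ng/μL final in 50 mM HEPES pH 7.2-7.4, 2 mM EDTA, 100 mM NaCl, BSA, 6 mM DTT; compounds preincubated 10 min at RT. DiFMUP added at 2 μM final, 60 min at RT, fluorescence read at ex 360/em 450 nm. IC50 calculated from % inhibition.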

For experiment [2], the system named is B16F10 mouse melanoma cells. Briefly: Tumor cells B16F10 cellular growth IFNγ-induced inhibition assay (CellTiter-Glo). The experiment is classed as cell-based. The conditions noted are these: for IC50: B16-F10, 72 h, 3 days incubation; for inhibition at 100 µM: B16-F10, B16F10, 100 μM compound. In outline:
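Cells were seeded at 500/well in DMEM + 10% FBS and allowed to adhere overnight at 37° C, 5% CO2. Compounds at 1× final were added via medium with or without IFNγ (5 ng/ml in the dilution medium). After 3 days, CellTiter-Glo luminescence gave % growth inhibition versus the DMSO/IFNγ control, from which IC50 was derived.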
For orientation: ATP-based viability assays read luminescence as a measure of living cells.

The mark [3] stands for this setting: B16F10, + IFNγ, read-out: IC50 + IFNγ.
[4] abbreviates: B16F10, no IFNγ, read-out: IC50 no IFNγ.
Setting [5] is: + IFNγ, read-out: % Growth Inhibition at 100 μM + IFNγ.
Where [6] appears, read: no IFNγ, read-out: % Growth Inhibition at 100 μM no IFNγ.

Where two headings read alike, the source gives them in different places.

T1 sequence (P17706 with tags, fused parts or gaps): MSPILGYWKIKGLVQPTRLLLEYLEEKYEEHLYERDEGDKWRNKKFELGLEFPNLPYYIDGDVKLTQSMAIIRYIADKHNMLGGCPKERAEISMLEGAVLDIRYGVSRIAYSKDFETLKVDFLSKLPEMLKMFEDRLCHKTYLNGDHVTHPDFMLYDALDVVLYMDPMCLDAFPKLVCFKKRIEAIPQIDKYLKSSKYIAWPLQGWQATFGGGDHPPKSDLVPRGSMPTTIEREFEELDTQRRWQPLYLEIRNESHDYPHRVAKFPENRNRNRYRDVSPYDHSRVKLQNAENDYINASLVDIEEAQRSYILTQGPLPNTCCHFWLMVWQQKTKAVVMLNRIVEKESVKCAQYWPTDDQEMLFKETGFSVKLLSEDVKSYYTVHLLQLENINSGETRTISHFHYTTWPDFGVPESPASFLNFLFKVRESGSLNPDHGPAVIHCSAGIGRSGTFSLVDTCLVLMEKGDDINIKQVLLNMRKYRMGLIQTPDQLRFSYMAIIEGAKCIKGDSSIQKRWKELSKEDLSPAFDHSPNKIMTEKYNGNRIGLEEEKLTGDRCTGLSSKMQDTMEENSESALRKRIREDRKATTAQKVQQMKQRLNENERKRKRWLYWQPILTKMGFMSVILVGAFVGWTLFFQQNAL

Turning to `Cc1cccc(NC(=O)Nc2cc(O)c(N3CC(=O)NS3(=O)=O)c(F)c2)c1` [Example 42, 1-[4-(1,1-dioxido-4-oxo-1,2,5-thiadiazolidin-2-yl)-3-fluoro-5-hydroxyphenyl]-3-(3-methylphenyl)urea], the IC50 – broadly, the concentration needed to halve the response being measured – in experiment [1] was below 5 nM; in experiment [2] (setting [3]) it was at least 100 µM; in experiment [2] (setting [4]), at least 100 µM. In addition, the inhibition at 100 µM in experiment [2] (setting [5]) and in experiment [2] (setting [6]) was 10 to 50% in each case.

`O=C1CN(c2c(O)cc(NC(=O)NC3CCN(S(=O)(=O)Cc4ccccc4Cl)CC3)cc2F)S(=O)(=O)N1` [Example 45, 1-{1-[(2-chlorobenzyl)sulfonyl]piperidin-4-yl}-3-[4-(1,1-dioxido-4-oxo-1,2,5-thiadiazolidin-2-yl)-3-fluoro-5-hydroxyphenyl]urea]: the results for the IC50 in experiment [1], in experiment [2] (setting [3]) and in experiment [2] (setting [4]) were 5 to 10 nM, at least 100 µM and at least 100 µM, respectively. For the same compound, the inhibition at 100 µM in experiment [2] (setting [5]) and in experiment [2] (setting [6]) was 10 to 50% each time.

Consider `O=C1CN(c2c(O)cc(NC(=O)Nc3cccc(Cl)c3)cc2F)S(=O)(=O)N1` [Example 46, 1-(3-chlorophenyl)-3-[4-(1,1-dioxido-4-oxo-1,2,5-thiadiazolidin-2-yl)-3-fluoro-5-hydroxyphenyl]urea], for which the results for the IC50 in experiment [1], in experiment [2] (setting [3]) and in experiment [2] (setting [4]) were below 5 nM, at least 100 µM and at least 100 µM, respectively. Moreover, the inhibition at 100 µM in experiment [2] (setting [5]) and in experiment [2] (setting [6]) was 10 to 50% each time.

As to `O=C1CN(c2c(O)cc(NC(=O)Nc3ccc(Cl)cc3)cc2F)S(=O)(=O)N1` [Example 47, 1-(4-chlorophenyl)-3-[4-(1,1-dioxido-4-oxo-1,2,5-thiadiazolidin-2-yl)-3-fluoro-5-hydroxyphenyl]urea], the IC50 in experiment [1] was below 5 nM; in experiment [2] (setting [3]) it was 50 to 100 µM; in experiment [2] (setting [4]) it was at least 100 µM. Also, the inhibition – broadly, the percentage by which the read-out fell short of the control – at 100 µM in experiment [2] (setting [5]) was 50 to 75%; in experiment [2] (setting [6]), 10 to 50%.

In the case of `O=C1CN(c2c(O)cc(NC(=O)Nc3ccccc3Cl)cc2F)S(=O)(=O)N1` [Example 48, 1-(2-chlorophenyl)-3-[4-(1,1-dioxido-4-oxo-1,2,5-thiadiazolidin-2-yl)-3-fluoro-5-hydroxyphenyl]urea], the IC50 in experiment [1] was 5 to 10 nM; in experiment [2] (setting [3]), at least 100 µM; in experiment [2] (setting [4]), at least 100 µM. For the same compound, the inhibition at 100 µM in experiment [2] (setting [5]) and in experiment [2] (setting [6]) was 10 to 50% each time.

Consider `O=C1CN(c2c(O)cc(NC(=O)NC3CCN(S(=O)(=O)c4ccccc4Cl)CC3)cc2F)S(=O)(=O)N1` [Example 51, 1-{1-[(2-chlorophenyl)sulfonyl]piperidin-4-yl}-3-[4-(1,1-dioxido-4-oxo-1,2,5-thiadiazolidin-2-yl)-3-fluoro-5-hydroxyphenyl]urea], for which the IC50 in experiment [1] is below 5 nM; in experiment [2] (setting [3]), at least 100 µM; in experiment [2] (setting [4]), at least 100 µM. Moreover, the inhibition at 100 µM in experiment [2] (setting [5]) and in experiment [2] (setting [6]) was 10 to 50% in each case.

Consider `O=C1CN(c2c(O)cc(NC(=O)Nc3ccc(F)cc3)cc2F)S(=O)(=O)N1` [Example 53, 1-[4-(1,1-dioxido-4-oxo-1,2,5-thiadiazolidin-2-yl)-3-fluoro-5-hydroxyphenyl]-3-(4-fluorophenyl)urea], for which the values for the IC50 in experiment [1], in experiment [2] (setting [3]) and in experiment [2] (setting [4]) were 5 to 10 nM, at least 100 µM and at least 100 µM, respectively. In addition, the inhibition at 100 µM in experiment [2] (setting [5]) and in experiment [2] (setting [6]) was 10 to 50% throughout.

Consider `O=C1CN(c2c(O)cc(NC(=O)Nc3cccc(F)c3)cc2F)S(=O)(=O)N1` [Example 54, 1-[4-(1,1-dioxido-4-oxo-1,2,5-thiadiazolidin-2-yl)-3-fluoro-5-hydroxyphenyl]-3-(3-fluorophenyl)urea], for which the IC50 in experiment [1] was below 5 nM; in experiment [2] (setting [3]) it was 10 to 50 µM; in experiment [2] (setting [4]), at least 100 µM. For the same compound, the inhibition at 100 µM is 50 to 75% in experiment [2] (setting [5]) and 10 to 50% in experiment [2] (setting [6]).

`O=C1CN(c2c(O)cc(NC(=O)Nc3ccccc3C(F)(F)F)cc2F)S(=O)(=O)N1` [Example 55, 1-[4-(1,1-dioxido-4-oxo-1,2,5-thiadiazolidin-2-yl)-3-fluoro-5-hydroxyphenyl]-3-[2-(trifluoromethyl)phenyl]urea]: the IC50 was 5 to 10 nM in experiment [1], at least 100 µM in experiment [2] (setting [3]) and at least 100 µM in experiment [2] (setting [4]). In addition, the inhibition at 100 µM in experiment [2] (setting [5]) and in experiment [2] (setting [6]) was 10 to 50% throughout.

For `O=C1CN(c2c(O)cc(NC(=O)NC3CCCCC3)cc2F)S(=O)(=O)N1` [Example 56, 1-cyclohexyl-3-[4-(1,1-dioxido-4-oxo-1,2,5-thiadiazolidin-2-yl)-3-fluoro-5-hydroxyphenyl]urea], the IC50 in experiment [1] is below 5 nM; in experiment [2] (setting [3]) it was below 5 µM; in experiment [2] (setting [4]) it was at least 100 µM. Further, the inhibition at 100 µM in experiment [2] (setting [5]) is 75 to 100%; in experiment [2] (setting [6]), 10 to 50%.

Take `O=C1CN(c2c(O)cc(NC(=O)NCC3CCCO3)cc2F)S(=O)(=O)N1` (centres unmarked) [Example 57, 1-[4-(1,1-dioxido-4-oxo-1,2,5-thiadiazolidin-2-yl)-3-fluoro-5-hydroxyphenyl]-3-(tetrahydrofuran-2-ylmethyl)urea]: the results for the IC50 in experiment [1], in experiment [2] (setting [3]) and in experiment [2] (setting [4]) were 10 to 50 nM, 10 to 50 µM and at least 100 µM, respectively. The inhibition at 100 µM in experiment [2] (setting [5]) lay in the range of 50 to 75%; in experiment [2] (setting [6]) it was 10 to 50%.

Regarding `COCCCNC(=O)Nc1cc(O)c(N2CC(=O)NS2(=O)=O)c(F)c1` [Example 58, 1-[4-(1,1-dioxido-4-oxo-1,2,5-thiadiazolidin-2-yl)-3-fluoro-5-hydroxyphenyl]-3-(3-methoxypropyl)urea], the IC50 in experiment [1] is 10 to 50 nM; in experiment [2] (setting [3]), 5 to 10 µM; in experiment [2] (setting [4]), at least 100 µM. In addition, the results for the inhibition at 100 µM in experiment [2] (setting [5]) and in experiment [2] (setting [6]) were 75 to 100% and 10 to 50%, respectively.

For `COc1ccc(NC(=O)Nc2cc(O)c(N3CC(=O)NS3(=O)=O)c(F)c2)cc1OC` [Example 59, 1-(3,4-dimethoxyphenyl)-3-[4-(1,1-dioxido-4-oxo-1,2,5-thiadiazolidin-2-yl)-3-fluoro-5-hydroxyphenyl]urea], the IC50 in experiment [1] is below 5 nM; in experiment [2] (setting [3]), 10 to 50 µM; in experiment [2] (setting [4]) it was at least 100 µM. The inhibition at 100 µM in experiment [2] (setting [5]) is 50 to 75%; in experiment [2] (setting [6]) it was 10 to 50%.

As to `CC(C)CCNC(=O)Nc1cc(O)c(N2CC(=O)NS2(=O)=O)c(F)c1` [Example 62, 1-[4-(1,1-dioxido-4-oxo-1,2,5-thiadiazolidin-2-yl)-3-fluoro-5-hydroxyphenyl]-3-(3-methylbutyl)urea], the IC50 in experiment [1] was 5 to 10 nM; in experiment [2] (setting [3]), below 5 µM; in experiment [2] (setting [4]), at least 100 µM. The inhibition at 100 µM in experiment [2] (setting [5]) is 75 to 100%; in experiment [2] (setting [6]), 10 to 50%.

Take `COc1ccc(CNC(=O)Nc2cc(O)c(N3CC(=O)NS3(=O)=O)c(F)c2)cc1` [Example 63, 1-[4-(1,1-dioxido-4-oxo-1,2,5-thiadiazolidin-2-yl)-3-fluoro-5-hydroxyphenyl]-3-(4-methoxybenzyl)urea]: the figures for the IC50 in experiment [1], in experiment [2] (setting [3]) and in experiment [2] (setting [4]) were 10 to 50 nM, 10 to 50 µM and at least 100 µM, respectively. Also, the results for the inhibition at 100 µM in experiment [2] (setting [5]) and in experiment [2] (setting [6]) were 75 to 100% and 10 to 50%, respectively.

Consider `CC(C)(C)OC(=O)N1CCC(NC(=O)Nc2cc(O)c(N3CC(=O)NS3(=O)=O)c(F)c2)CC1` [Example 98, tert-butyl 4-[[3-fluoro-5-hydroxy-4-(1,1,4-trioxo-1,2,5-thiadiazolidin-2-yl)phenyl]carbamoyl-amino]piperidine-1-carboxylate], for which the IC50 in experiment [1] was 10 to 50 nM; in experiment [2] (setting [3]), at least 100 µM; in experiment [2] (setting [4]), at least 100 µM. Besides, the inhibition at 100 µM in experiment [2] (setting [5]) and in experiment [2] (setting [6]) was 10 to 50% each time.

With `O=C1CN(c2c(O)cc(NC(=O)NC3CCNCC3)cc2F)S(=O)(=O)N1` [Example 99, 1-[3-fluoro-5-hydroxy-4-(1,1,4-trioxo-1,2,5-thiadiazolidin-2-yl)phenyl]-3-(4-piperidyl)urea], the values for the IC50 in experiment [1], in experiment [2] (setting [3]) and in experiment [2] (setting [4]) were 10 to 50 nM, 10 to 50 µM and at least 100 µM, respectively. Also, the inhibition at 100 µM in experiment [2] (setting [5]) lay in the range of 50 to 75%; in experiment [2] (setting [6]), 10 to 50%.

Regarding `O=C1CN(c2c(O)cc(NC(=O)NCC3CNCC34CCCCC4)cc2F)S(=O)(=O)N1` (centres unmarked) [Example 100, 1-(2-azaspiro[4.5]decan-4-ylmethyl)-3-[3-fluoro-5-hydroxy-4-(1,1,4-trioxo-1,2,5-thiadiazolidin-2-yl)phenyl]urea], the IC50 in experiment [1] is 10 to 50 nM; in experiment [2] (setting [3]), 10 to 50 µM; in experiment [2] (setting [4]), at least 100 µM. Further, the inhibition at 100 µM in experiment [2] (setting [5]) lay within 50 to 75%; in experiment [2] (setting [6]) it was 10 to 50%.

As to `CC(C)(C)OC(=O)N1CC(CNC(=O)Nc2cc(O)c(N3CC(=O)NS3(=O)=O)c(F)c2)C2(CCCCC2)C1` (centres unmarked) [Example 101, tert-butyl 4-[[[3-fluoro-5-hydroxy-4-(1,1,4-trioxo-1,2,5-thiadiazolidin-2-yl)phenyl]carbamoyl-amino]methyl]-2-azaspiro[4.5]decane-2-carboxylate], the figures for the IC50 in experiment [1], in experiment [2] (setting [3]) and in experiment [2] (setting [4]) were 10 to 50 nM, 50 to 100 µM and at least 100 µM, respectively. For the same compound, the inhibition at 100 µM in experiment [2] (setting [5]) was 50 to 75%; in experiment [2] (setting [6]) it was 10 to 50%.
